Laboratory results taken from patent publication US20210093637A1, “TOPICAL OINTMENT FORMULATIONS OF PDE-4 INHIBITOR AND THEIR USE IN TREATING SKIN CONDITIONS” (Dermavant Sciences GmbH, priority 2017, published 2021).

Key:
NC/Nga mice [1] = assay: Prophylactic study in DNCB-induced atopic dermatitis NC/Nga mice (treatment days 1-14); assay type: in vivo, mouse; details: skin sections day 15
Description: (§1) Atopic dermatitis (AD) was induced in specific pathogen-free (SPF) female NC/Nga mice (n=8/group), 8-12 weeks old, by repeated percutaneous applications of dinitrochlorobenzene (DNCB) to the dorsal skin of the ears and back on days 4, 7, 10, and 13. NC/Nga mice are an established mouse model for atopic dermatitis. See Suto et al. NC/Nga mice: a mouse model for atopic dermatitis; Int Arch Allergy Immunol. 1999; 120 Suppl 1:70-5; and Gao et al., Establishment of allergic dermatitis in NC/Nga mice as a model for severe atopic dermatitis, Biol. Pharm. Bull. 2004 September; 27(9): 1376-81.
(§2) A prophylactic study and a therapeutic study was conducted: • 1. Prophylactic study: 0.2% formulation (C1), 0.5% formulation (C2), RVT-501 placebo, tacrolimus placebo, 0.1% tacrolimus, or no treatment (AD control) on days 1-14 or sham-induction of AD. • 2. Therapeutic study: 0.2% formulation (C1), 0.5% formulation (C2), active ingredient placebo, tacrolimus placebo, 0.1% tacrolimus, or no treatment (AD control) on days 8-14.
(§3) Scratching assays were performed on days 2, 8, 11, 14 in both studies. Skin samples were harvested for histopathology and cytokine analysis on day 15. Histopathology of sham-induced versus DNCB-induced mouse skin indicates clear presence of atopic dermatitis.

NC/Nga mice [2] = assay: Therapeutic study in DNCB-induced atopic dermatitis NC/Nga mice (treatment days 8-14); assay type: in vivo, mouse
Description: as §1, §2, §3

**Q.** What does the source list for C=CC[C@@H]1/C=C(\C)C[C@H](C)C[C@H](OC)[C@H]2O[C@@](O)(C(=O)C(=O)N3CCCC[C@H]3C(=O)O[C@H](/C(C)=C/[C@@H]3CC[C@@H](O)[C@H](OC)C3)[C@H](C)[C@@H](O)CC1=O)[C@H](C)C[C@@H]2OC [0.1% tacrolimus, tacrolimus]?
**A.** AD lesions induced by DNCB at the microscopic level (NC/Nga mice [1]): attenuated AD lesions; scratching (NC/Nga mice [2]; day 14): significant decrease in scratching; IL-1α, IL-1β, IL-4, IL-5, IL-10, IL-12(p40), IL-13, eotaxin, GM-CSF, KC, MCP-1, MIP-1α, MIP-1β, RANTES, and TNF-α in skin (NC/Nga mice [2]; day 15): significantly decreased; AD lesion severity (NC/Nga mice [2]; skin sections day 15): trended toward a reduction
